For test [1], the system named is Ezh2f/f; PDGFB/H3K27M NSCs injected into the mouse pons. Kind of test: Survival of mice bearing Ezh2f/f; PDGFB/H3K27M NSC tumours treated in vivo (FIG. 3c). The note with it: 10^4 cells injected into the pons, treatment after 3 weeks, vs oil-treated control.
Test [2] concerns PDGFB NSCs expressing either WT or K27M mutant H3.3. The test can be described thus: Colony formation assay of PDGFB NSCs (FIG. 2C). The settings on record: 2000 cells plated, colonies after 9 days. The test is classed as cell-based, mouse.
Test [3] addresses T1, Human PRC2 complex (EZH2, EED, SUZ12, RbAp48, AEBP2) (Homo sapiens, UniProt Q15910).
T1 construct: FLAG (N); made in house; host or cells: Sf9 insect cells
Kind of test: EZH2 methyltransferase activity within PRC2 complex, scintillation proximity assay (Example 2). The test is classed as biochemical. The settings on record: determined as described in Example 2; inhibition of methyltransferase activity of EZH2 within PRC2. How it is done: Compounds can be evaluated for their ability to inhibit the methyltransferase activity of EZH2 within the PRC2 complex using the following assay. Human PRC2 complex is prepared by co-expressing each of the 5 member proteins (EZH2, EED, SUZ12, RbAp48, AEBP2) in Sf9 cells followed by co-purification. The proteins may be expressed as tagged versions, e.g. EZH2 may be expressed as FLAG-EZH2. The tag can be used for purification.
Enzyme activity is measured in a scintillation proximity assay (SPA) where a tritiated methyl group is transferred from 3H-SAM to a lysine residue on Histone H3 of a mononucleosome, purified from HeLa cells. Mononucleosomes are captured on SPA beads and the resulting signal is read on a ViewLux plate reader. SPA beads are e.g. available from Perkin Elmer, United States. This may be done as described in Garapaty-Rao et al, 2013 Identification of EZH2 and EZH1 small molecule inhibitors with selective impact on diffuse large B cell lymphoma cell growth. Chemistry and Biology 20, 1329-1339.
1. […]
1. Read the assay plates on the Viewlux Plate Reader utilizing the 613 nm emission filter with a 300 s read time. […]
Percent inhibition is calculated relative to the DMSO control for each compound concentration and the resulting values are fit using standard IC50 fitting parameters within the ABASE data fitting software package.
Background: SPA uses beads or plates that emit light when radiolabelled molecules are held near them.

Test [4] concerns PDGFB NSCs expressing either WT or K27M mutant H3.3. The note with it: 3 μM inhibitor vs DMSO.
Text: Cells were harvested and counted using Neubauer chamber every 3-4 days.
The subject of the next test is EZH2. The note with it: PDGFB NSCs, different concentrations for 3 days, FIG. 2A.
In test [5] the test system is Ink4a−/−/Arf−/− NSCs expressing constitutive active epidermal growth factor receptor (*EGFR). The test can be described thus: Cell proliferation of adult GBM model cells (FIG. 4). The test is classed as cell-based, mouse. The settings on record: inhibitor vs DMSO. The text has this: Cell proliferation of DMSO or EZH2 inhibitor treated Ink4a/Arf−/−*EGFR NSCs.
A mouse model representing adult classical subtype of GBM subtypes was investigated.

The test system of test [6] is Ezh2f/f; PDGFB/H3K27M NSCs injected into the mouse pons. Kind of test: Survival of mice injected in the pons with pre-treated Ezh2f/f; PDGFB/H3K27M NSCs (FIG. 3b). The settings on record: 10^5 cells pre-treated with 4-OHT vs ethanol.
Text: Briefly, mice were anesthetized using isoflurane (1.5 L O2/minute and 2.5% isoflurane) and placed in a stereotactic device (David Kopf instruments). […] The hole in the skull was closed with bonewax (Agnthos) and the scalp was closed using clips (Agnthos). The clips were removed after one week of injection.
PDGFB/H3K27M NSCs in mice with Ezh2^f/f; CreER (Ezh2^f/f;PDGFB/H3K27M) background were generated. In these mice Ezh2 could be conditionally deleted.
For test [7], the system named is Ezh2 expression in Ezh2f/f; PDGFB/H3K27M NSCs. The test can be described thus: Immunoblot of Ezh2 after 4-OHT treatment of Ezh2f/f; PDGFB/H3K27M NSCs (FIG. 3a). The test is classed as cell-based, mouse. The note with it: CreER PDGFB/H3K27M NSCs, 8 days of treatment (FIG. 3a). As for the experimental part: Cells were trypsinized, washed once with 1× phosphate buffer saline (PBS) and lysed in TOPEX+ buffer (300 mM NaCl, 50 mM Tris-HCl pH7.5, 0.5% Triton X-100, 1% SDS, 1 mM DTT, Aprotinin, Leupeptin, 0.1 mM phenylmethanesulfonyl fluoride (PMSF) and 33.33 U/mL Benzonase (EMD-Novagen)). Protein concentrations in the cell lysates were measured by Bradford reagent (Bio-Rad). Cell lysates were separated by SDS-PAGE and transferred to nitrocellulose membrane. The antibodies used for the immunoblotting were antibodies specifically recognising H3K27me3 (C36B11, Cell Signaling), H3K27me2, p16^Ink4a, p53, H3K27M, actin, H3 and Ezh2.

By IC50 is commonly meant the point on the concentration scale where inhibition reaches its midpoint. A low value points to higher potency.

T1 sequence (Q15910 whole entry): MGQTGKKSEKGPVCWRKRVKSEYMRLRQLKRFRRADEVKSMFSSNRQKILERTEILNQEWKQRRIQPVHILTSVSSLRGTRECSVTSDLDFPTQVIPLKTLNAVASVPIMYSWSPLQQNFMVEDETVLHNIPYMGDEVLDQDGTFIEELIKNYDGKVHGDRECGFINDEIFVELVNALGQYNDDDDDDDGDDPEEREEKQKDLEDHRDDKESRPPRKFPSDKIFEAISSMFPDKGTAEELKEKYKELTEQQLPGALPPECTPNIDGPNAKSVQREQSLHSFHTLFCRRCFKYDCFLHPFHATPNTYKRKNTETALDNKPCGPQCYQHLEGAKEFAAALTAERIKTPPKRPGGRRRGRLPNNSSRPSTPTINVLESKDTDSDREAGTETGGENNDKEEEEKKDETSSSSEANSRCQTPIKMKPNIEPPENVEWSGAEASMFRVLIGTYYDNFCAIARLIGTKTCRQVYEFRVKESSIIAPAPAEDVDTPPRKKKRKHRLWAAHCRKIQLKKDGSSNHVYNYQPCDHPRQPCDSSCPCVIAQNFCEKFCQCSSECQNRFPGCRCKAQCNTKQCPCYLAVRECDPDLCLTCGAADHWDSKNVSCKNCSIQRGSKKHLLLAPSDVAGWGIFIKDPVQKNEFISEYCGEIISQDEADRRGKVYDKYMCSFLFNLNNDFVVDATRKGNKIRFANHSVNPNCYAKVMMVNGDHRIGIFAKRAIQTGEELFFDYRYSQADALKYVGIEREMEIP
T1 sequence (O75530 whole entry partner): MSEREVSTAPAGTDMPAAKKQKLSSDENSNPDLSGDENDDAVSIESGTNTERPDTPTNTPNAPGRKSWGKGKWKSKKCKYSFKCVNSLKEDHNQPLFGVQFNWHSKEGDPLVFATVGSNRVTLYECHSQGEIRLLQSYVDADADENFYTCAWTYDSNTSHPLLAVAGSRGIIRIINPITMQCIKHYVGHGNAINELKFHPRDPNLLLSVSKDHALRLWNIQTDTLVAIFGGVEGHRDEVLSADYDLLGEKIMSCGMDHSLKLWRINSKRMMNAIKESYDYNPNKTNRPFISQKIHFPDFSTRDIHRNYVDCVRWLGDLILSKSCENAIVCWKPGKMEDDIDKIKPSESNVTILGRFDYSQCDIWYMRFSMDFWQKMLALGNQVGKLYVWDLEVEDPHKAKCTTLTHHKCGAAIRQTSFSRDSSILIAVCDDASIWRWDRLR
T1 sequence (Q15022 whole entry partner): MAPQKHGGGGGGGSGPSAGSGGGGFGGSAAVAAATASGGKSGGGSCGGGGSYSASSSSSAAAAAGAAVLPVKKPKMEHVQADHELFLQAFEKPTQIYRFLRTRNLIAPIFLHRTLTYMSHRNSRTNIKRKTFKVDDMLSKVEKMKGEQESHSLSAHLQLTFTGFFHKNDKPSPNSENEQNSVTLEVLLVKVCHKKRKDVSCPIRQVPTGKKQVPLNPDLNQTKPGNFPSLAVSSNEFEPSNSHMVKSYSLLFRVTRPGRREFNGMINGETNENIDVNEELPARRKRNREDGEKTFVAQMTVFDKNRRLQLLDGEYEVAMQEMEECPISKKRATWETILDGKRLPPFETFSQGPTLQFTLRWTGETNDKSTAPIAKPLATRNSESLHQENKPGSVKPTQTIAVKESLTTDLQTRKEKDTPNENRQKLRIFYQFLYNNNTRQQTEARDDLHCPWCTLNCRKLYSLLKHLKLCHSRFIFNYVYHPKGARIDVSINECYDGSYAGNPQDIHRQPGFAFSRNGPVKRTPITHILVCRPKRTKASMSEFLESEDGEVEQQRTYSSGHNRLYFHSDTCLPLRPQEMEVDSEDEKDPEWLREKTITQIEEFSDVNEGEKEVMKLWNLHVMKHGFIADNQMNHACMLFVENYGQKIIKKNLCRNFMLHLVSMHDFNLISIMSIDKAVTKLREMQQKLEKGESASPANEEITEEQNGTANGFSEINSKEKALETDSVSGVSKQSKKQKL
T1 sequence (Q09028 whole entry partner): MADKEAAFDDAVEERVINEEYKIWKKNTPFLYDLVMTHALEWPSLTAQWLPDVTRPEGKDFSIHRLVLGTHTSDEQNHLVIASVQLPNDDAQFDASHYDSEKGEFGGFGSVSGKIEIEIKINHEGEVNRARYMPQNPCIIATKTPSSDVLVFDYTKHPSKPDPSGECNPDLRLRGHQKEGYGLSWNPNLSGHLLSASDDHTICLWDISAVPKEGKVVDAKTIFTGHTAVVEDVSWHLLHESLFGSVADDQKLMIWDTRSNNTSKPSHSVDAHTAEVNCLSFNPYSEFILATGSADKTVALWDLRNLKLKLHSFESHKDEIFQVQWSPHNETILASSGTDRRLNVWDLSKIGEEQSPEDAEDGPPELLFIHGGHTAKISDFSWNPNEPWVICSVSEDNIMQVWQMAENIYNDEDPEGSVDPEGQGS
T1 sequence (Q6ZN18 1-503 partner limits assumed): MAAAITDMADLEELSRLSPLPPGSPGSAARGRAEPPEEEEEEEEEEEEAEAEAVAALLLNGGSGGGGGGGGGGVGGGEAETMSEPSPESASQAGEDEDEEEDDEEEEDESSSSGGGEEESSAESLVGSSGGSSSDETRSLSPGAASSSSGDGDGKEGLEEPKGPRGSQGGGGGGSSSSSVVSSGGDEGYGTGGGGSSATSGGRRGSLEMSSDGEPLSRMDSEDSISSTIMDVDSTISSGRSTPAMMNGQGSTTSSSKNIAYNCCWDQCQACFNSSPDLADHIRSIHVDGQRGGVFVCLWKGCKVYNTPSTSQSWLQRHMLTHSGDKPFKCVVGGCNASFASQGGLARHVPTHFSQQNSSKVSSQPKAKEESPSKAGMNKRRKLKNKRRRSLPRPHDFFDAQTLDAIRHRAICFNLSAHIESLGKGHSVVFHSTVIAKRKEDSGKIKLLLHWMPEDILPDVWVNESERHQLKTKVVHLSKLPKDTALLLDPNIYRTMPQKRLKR

`CC/C(=C(\c1ccccc1)c1ccc(OCCN(C)C)cc1)c1ccccc1` [Tamoxifen, tamoxifen]: in test [1], the survival of mice entry was “significantly longer survival”.

Consider GSK343, for which the colonies formed entry in test [2] is “formed fewer colonies”. In test [3], this compound registered an IC50 of 5 nM. Besides, the proliferation entry in test [4] is recorded as “reduced proliferation”; in test [5], “did not affect their proliferation”. The “EZH2 inhibition (H3K27me3 and H3K27me2 levels by immunoblot)” value in the test on EZH2 was “potent and highly selective EZH2 inhibitors”.

Regarding `CCN(c1cc(-c2ccc(CN3CCOCC3)cc2)cc(C(=O)NCc2c(C)cc(C)[nH]c2=O)c1C)C1CCOCC1` [EPZ6438], in test [2], the colonies formed entry was “formed fewer colonies”. In addition, the proliferation entry is on record as “reduced proliferation” in test [4] and “did not affect their proliferation” in test [5].

As to 4-hydroxytamoxifen [4-OHT], the survival of mice result in test [6] is listed as “significantly longer survival”. Besides, the Ezh2 expression result in test [7] is recorded as “complete loss of Ezh2”.

The record behind these values is patent publication US20180271857A1, “TREATMENT OF CANCER BY INHIBITING EZH2 ACTIVITY” (University of Copenhagen, priority 2014, published 2018).
